Experimental data as given in patent US5663152A, “Potentiators for aminoglycosides” (Asahi Kasei Kogyo Kabushiki Kaisha, priority 1995, dated 1997).
In brackets after ≈: the same amount, converted by molar mass. Where two headings read alike, the source gives them in different places.

Key:
[1] = tested on: Escherichia coli (ATCC 10536); assay: Minimum inhibitory concentration by broth dilution, Escherichia coli (ATCC 10536); format: cell-based; settings: for MIC: Escherichia coli, ATCC10536, 48 h, read-out: MIC Alone
Excerpt: (§1) Microorganism strains were supplied by the ATCC. Staphylococcus aureus is a clinically significant member of the gram-positive group of bacterial pathogens. It gives rise to serious infections, and may produce bacteremia, endocarditis, and meningitis. Methicillin-resistant strains of Staphylococcus aureus were chosen for evaluation because they present a significant medical problem, in view of the fact that methicillin is the drug of choice for treatment of S. aureus infection in the common penicillin-resistant strains.
(§2) Escherichia coli is also a gram-negative pathogenic bacillus which may cause enteritis, peritonitis, or cystitis.
(§3) The MICs were determined by the broth dilution method (Kubo et al. J. Agric. Food Chem. 1992, 40, 245-248). Test compounds were dissolved in Di-Methyl Formamide("DMF") to make stock solution at concentrations of 80, 40, 20, or 10 mg/ml depending upon the potency and solubility. An aliquot of 0.01 ml of the stock solution was added to a tube containing 0.99 ml of media to get the initial concentration of testing solution. Serial two-fold dilutions were made by mixing 0.5 ml of testing solution with 0.5 ml of blank medium. A 0.5 ml aliquot of diluted inoculum containing an appropriate concentration of the test microorganism (1:100 dilution of the initial inoculum) was then added into each tube containing 0.5 ml serial dilutions of the test compound. After incubating for 2 days at 37° C., the tube was evaluated for visible growth. The MIC was determined as the lowest concentration of a compound which prevented visible microorganism growth. A culture growth control without compound (solvent only) and several culture sensitive reference agents were used as positive controls. The assays were performed in duplicate.

[2] = tested on: Escherichia coli (ATCC 10536); assay: Minimum biocidal concentration, Escherichia coli (ATCC 10536); format: cell-based; settings: for MBC: Escherichia coli
Excerpt: as §1, §2
(§4) After determining the MIC, 0.1 ml of a ten-fold dilution from each tube showing no turbidity was plated onto chemical free nutrient agar plates. After 24 hours of incubation, the colonies were counted. The MBC was the lowest concentration of antibacterial compound that decreased the initial inoculum population by >99.9 percent. The initial population for E. coli. was 1×10^7 -6×10^7 colony forming units (CFU) per ml; for P. aeruginosa was 1×10^6 -5×10^6 CFU per ml; and for methicillin-resistant Staphylococcus aureus (MRSA) was 2×10^6 -7×10^6 CFU per ml.

[3] = tested on: Methicillin-resistant Staphylococcus aureus (ATCC 33591); assay: Minimum inhibitory concentration by broth dilution, MRSA (ATCC 33591); format: cell-based; settings: substance alone, 2 days at 37° C.; for MIC: Staphylococcus aureus, 48 h
Excerpt: as §1, §3

[4] = occurring in foods, routinely consumed in the diet; in words; cited from earlier work
[5] = tested on: Methicillin-resistant Staphylococcus aureus (ATCC 33591); assay: Minimum biocidal concentration, MRSA (ATCC 33591); format: cell-based; settings: substance alone, >99.9 percent decrease of inoculum; for MBC: Staphylococcus aureus
Excerpt: as §1, §4

[6] = tested on: Pseudomonas aeruginosa (ATCC 10145); assay: Minimum inhibitory concentration by broth dilution, Pseudomonas aeruginosa (ATCC 10145); format: cell-based; settings: for MIC: Pseudomonas aeruginosa, ATCC10145, 48 h, read-out: MIC Alone
Excerpt: as §1
(§5) Pseudomonas aeruginosa was also chosen for evaluation. P. aerugtnosa is a gram-negative pathogenic bacillus which may cause urinary tract infections or pneumonia.
as §3

[7] = tested on: Pseudomonas aeruginosa (ATCC 10145); assay: Minimum biocidal concentration, Pseudomonas aeruginosa (ATCC 10145); format: cell-based; settings: for MBC: Pseudomonas aeruginosa, ATCC10145, read-out: MBC Alone
Excerpt: as §1, §5, §4

[8] = in words; cited from earlier work
[9] = tested on: aminoglycoside-inactivating enzymes; settings: in words; cited from earlier work
[10] = tested on: gram-negative and gram-positive organisms; settings: in words, cited from earlier work
[11] = E. coli ATCC 10536, substance alone, 2 days at 37° C.
[12] = MRSA ATCC 33591, read-out: MIC Alone
[13] = MRSA ATCC 33591, read-out: MBC Alone
[14] = read-out: MIC Alone, MRSA ATCC 33591
[15] = read-out: MBC Alone, MRSA ATCC 33591

Compound	MIC [3, 12]	toxicity of potentiators [4]	MBC [5, 13]	MIC [1]	MBC ([2]; ATCC10536, read-out: MBC Alone)	MIC Alone ([3]; MRSA ATCC 33591)	MIC [3, 14]	MIC [6]	MBC Alone ([5]; MRSA ATCC 33591)	MBC [5, 15]	MBC [7]	side effects [8]	antibacterial activity in vitro [10]	also measured
CC=Cc1ccc(OC)cc1 [Anethole, anethole]	> 1600 µg/mL	routinely consumed in the diet without apparent harm	> 1600 µg/mL											MIC [1, 11]: 400 µg/mL (≈ 2.7 mM); MBC ([2]; ATCC10536, E. coli ATCC 10536, substance alone, >99.9 percent decrease of inoculum, read-out: MBC Alone): 800 µg/mL (≈ 5.4 mM)
CCCC=CC=O [2-Hexenal, 2-hexenal]		routinely consumed in the diet without apparent harm		200 µg/mL (≈ 2.04 mM)	200 µg/mL (≈ 2.04 mM)	200 µg/mL (≈ 2.04 mM)	400 µg/mL (≈ 4.08 mM)	200 µg/mL (≈ 2.04 mM)	400 µg/mL (≈ 4.08 mM)	800 µg/mL (≈ 8.15 mM)	200 µg/mL (≈ 2.04 mM)			
Gentamicin [reference compound]						1.56 µg/mL			1.56 µg/mL			strong side effects, such as nephrotoxicity, ototoxicity, or neuromuscular blockade		MIC Alone [1, 11]: 0.78 µg/mL; MBC Alone ([2]; E. coli ATCC 10536, substance alone, >99.9 percent decrease of inoculum): 0.78 µg/mL; MIC Alone ([6]; P. aeruginosa ATCC 10145, substance alone, 2 days at 37° C.): 0.39 µg/mL; MBC Alone ([7]; P. aeruginosa ATCC 10145, substance alone, >99.9 percent decrease of inoculum): 0.78 µg/mL
NCC[C@H](O)C(=O)N[C@@H]1C[C@H](N)[C@@H](O[C@H]2O[C@H](CN)[C@@H](O)[C@H](O)[C@H]2O)[C@H](O)[C@H]1O[C@H]1O[C@H](CO)[C@@H](O)[C@H](N)[C@H]1O [Amikacin]	200 µg/mL (≈ 0.342 mM)		200 µg/mL (≈ 0.342 mM)									strong side effects, such as nephrotoxicity, ototoxicity, or neuromuscular blockade	broad range of activity against gram-negative and gram-positive organisms	degradation by aminoglycoside-inactivating enzymes [9]: resists degradation by most aminoglycoside-inactivating enzymes
c1ccc2[nH]ccc2c1 [Indole, indole]		routinely consumed in the diet without apparent harm		800 µg/mL (≈ 6.83 mM)	800 µg/mL (≈ 6.83 mM)		800 µg/mL (≈ 6.83 mM)	400 µg/mL (≈ 3.41 mM)		1600 µg/mL (≈ 13.7 mM)	800 µg/mL (≈ 6.83 mM)			
NC[C@H]1O[C@H](O[C@H]2[C@H](O)[C@@H](O[C@H]3O[C@H](CO)[C@@H](O)[C@H](N)[C@H]3O)[C@H](N)C[C@@H]2N)[C@H](N)C[C@@H]1O [Tobramycin]	800 µg/mL (≈ 1.71 mM)		1600 µg/mL (≈ 3.42 mM)									strong side effects, such as nephrotoxicity, ototoxicity, or neuromuscular blockade	broad range of activity against gram-negative and gram-positive organisms	mode of action ([10]; in vitro tests): bactericidal and that it acts by interfering with protein synthesis in bacterial cells
